# Measurements published in patent US11453695B2, “Nucleoside analogues and methods of use thereof” (priority 2016, dated 2022).
# Tests used:
# HBV/ayW1 = experiment: Antiviral effect against HBV in HepG-2 cells; type: cell-based; conditions: Hepatitis B virus, HepG2; HBV/ayW1 in HepG-2 cells
# [1] = Cell toxicity in the HBV assay; type: cell-based; conditions: human, HepG-2 cells
smiles,measurement,setting,value
COc1nc(Cl)nc2c1ncn2[C@@H]1O[C@H](COP(=O)(N[C@@H](C)C(=O)OC(C)C)Oc2ccccc2)C(C)(Cc2nnn[nH]2)[C@H]1F (stereo partly drawn) [LCB-2147],EC50,HBV/ayW1,4 µM
same,EC90,HBV/ayW1,16 µM
same,CC50,[1],> 100 µM
